This note sets out measurements from patent US9359308B2, “Pyrazine kinase inhibitors” (Portola Pharmaceuticals, Inc., priority 2011, dated 2016).

Bounds are passed on as bounds.

This assay concerns the target T1, full length active recombinant SYK enzyme (Homo sapiens, UniProt P43405).
T1 construct: full length active recombinant SYK enzyme (Millipore, Calif.); purchased Millipore
Description: Inhibition of Syk tyrosine phosphorylation activity (LANCE TR-FRET kinase assay). The note with it: activity in the Syk assays, class symbols. Type of assay: biochemical. The method in brief: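 IC50 was derived by non-linear regression of TR-FRET signal (Eu-W1024-PY100 donor, streptavidin-APC acceptor) read 1 h after EDTA quench. The kinase step ran 1 h at room temperature with 1 nM full-length SYK, 550 nM biotinylated DEEDYESP substrate and 100 μM ATP in Tris pH 7.5/MgCl2/DTT at 3% final DMSO.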
On to `NC(=O)c1ncc(N[C@@H]2CCCC(F)(F)[C@@H]2N)nc1Nc1ccc2ncncc2c1` [Example 405, 5-((1R,2R)-2-amino-3,3-difluorocyclohexylamino)-3-(quinazolin-6-ylamino)pyrazine-2-carboxamide], for which the IC50 lay within 1 to 10 nM.

Turning to `NC(=O)c1ncc(N[C@H](CC2CC2)C(N)=O)nc1Nc1cnc2cccnc2c1` [Example 406, (R)-3-(1,5-naphthyridin-3-ylamino)-5-(1-amino-3-cyclopropyl-1-oxopropan-2-ylamino)pyrazine-2-carboxamide], the concentration for half-maximal inhibition (IC50) was 1 to 10 nM.

With `CC(C)C[C@@H](Nc1cnc(C(N)=O)c(Nc2cnc3cccnc3c2)n1)C(N)=O` [Example 407, (R)-3-(1,5-naphthyridin-3-ylamino)-5-(1-amino-4-methyl-1-oxopentan-2-ylamino)pyrazine-2-carboxamide], the concentration for half-maximal inhibition (IC50) was in the range of 1 to 10 nM.

As to `Cc1cc(Nc2nc(N[C@@H]3CCOC[C@@H]3N)cnc2C(N)=O)sn1` [Example 408, 5-((3R,4R)-3-aminotetrahydro-2H-pyran-4-ylamino)-3-(3-methylisothiazol-5-ylamino)pyrazine-2-carboxamide], the half-inhibitory concentration (IC50) was 1 to 10 nM.

Regarding `NC(=O)c1ncc(N[C@H](Cc2cccs2)C(N)=O)nc1Nc1cnc2cccnc2c1` [Example 409, (R)-3-(1,5-naphthyridin-3-ylamino)-5-(1-amino-1-oxo-3-(thiophen-2-yl)propan-2-ylamino)pyrazine-2-carboxamide], the concentration for half-maximal inhibition (IC50) was in the range of 1 to 10 nM.

With `COC[C@@H](Nc1cnc(C(N)=O)c(Nc2cnc3cccnc3c2)n1)C(N)=O` [Example 410, (R)-3-(1,5-naphthyridin-3-ylamino)-5-(1-amino-3-methoxy-1-oxopropan-2-ylamino)pyrazine-2-carboxamide], the half-inhibitory concentration (IC50) was in the range of 10 to 100 nM.

As to `NC(=O)c1ncc(N[C@@H](C(N)=O)c2ccccc2)nc1Nc1cnc2cccnc2c1` [Example 411, (R)-3-(1,5-naphthyridin-3-ylamino)-5-(2-amino-2-oxo-1-phenylethylamino)pyrazine-2-carboxamide], the 50% inhibitory concentration (IC50) was 10 to 100 nM.

Take `NC(=O)c1ncc(N[C@@H]2CCCC[C@@H]2N)nc1Nc1snc2ncccc12` [Example 412, 5-((1R,2S)-2-aminocyclohexylamino)-3-(isothiazolo[3,4-b]pyridin-3-ylamino)pyrazine-2-carboxamide]: the half-maximal inhibitory concentration (IC50) is below 1 nM.

Take `NC(=O)c1ncc(N[C@@H]2CCCC[C@@H]2N)nc1Nc1cnn2ccccc12` [Example 413, 5-(((1R,2S)-2-aminocyclohexyl)amino)-3-(pyrazolo[1,5-a]pyridin-3-ylamino)pyrazine-2-carboxamide]: the 50% inhibitory concentration (IC50) was below 1 nM.

For the molecule `NC(=O)c1ncc(N[C@@H]2CCCC[C@@H]2N)nc1N[C@H]1COc2ccccc2C1` [Example 415, 5-(((1R,2S)-2-aminocyclohexyl)amino)-3-((R)-chroman-3-ylamino)pyrazine-2-carboxamide], the IC50 was 10 to 100 nM.

For the molecule `NC(=O)c1ncc(N[C@@H]2CCCC[C@@H]2N)nc1N[C@@H]1COc2ccccc2C1` [Example 416, 5-(((1R,2S)-2-aminocyclohexyl)amino)-3-((S)-chroman-3-ylamino)pyrazine-2-carboxamide], the IC50 lay within 100 to 1000 nM.

Turning to `NC(=O)c1ncc(N[C@@H]2CCCC[C@@H]2N)nc1Nc1cccnc1` [Example 417, 5-(((1R,2S)-2-aminocyclohexyl)amino)-3-(pyridin-3-ylamino)pyrazine-2-carboxamide], the 50% inhibitory concentration (IC50) is below 1 nM.

Take `NC(=O)c1ncc(N[C@@H]2CCCC[C@@H]2N)nc1Nc1cncc(F)c1` [Example 418, 5-(((1R,2S)-2-aminocyclohexyl)amino)-3-((5-fluoropyridin-3-yl)amino)pyrazine-2-carboxamide]: the IC50 was 1 to 10 nM.

For the molecule `NC(=O)c1ncc(N[C@@H]2CCCC[C@@H]2N)nc1Nc1cnc2cccnc2c1` [Example 419, 3-((1,5-naphthyridin-3-yl)amino)-5-(((1R,2S)-2-aminocyclohexyl)amino)pyrazine-2-carboxamide], the IC50 was in the range of 1 to 10 nM.

Consider `NC(=O)c1ncc(N[C@@H]2CCCC[C@@H]2N)nc1Nc1cnc2ncccc2c1` [Example 420, 3-((1,8-naphthyridin-3-yl)amino)-5-(((1R,2S)-2-aminocyclohexyl)amino)pyrazine-2-carboxamide], for which the 50% inhibitory concentration (IC50) fell in the range of 1 to 10 nM.

On to `CC[C@@H](Nc1cnc(C(N)=O)c(Nc2cnn3ccccc23)n1)C(N)=O` [Example 421, (R)-5-((1-amino-1-oxobutan-2-yl)amino)-3-(pyrazolo[1,5-a]pyridin-3-ylamino)pyrazine-2-carboxamide], for which the concentration for half-maximal inhibition (IC50) was 1 to 10 nM.

In the case of `NC(=O)c1ncc(N[C@@H]2CCCC[C@@H]2N)nc1Nc1cncc(-c2ncccn2)c1` [Example 422], the half-inhibitory concentration (IC50) is 1 to 10 nM.

Take `NC(=O)c1ncc(N[C@@H]2CCCC[C@@H]2N)nc1Nc1cc(-c2ncccn2)cc(-c2ncccn2)c1` [Example 423, 5-(((1R,2S)-2-aminocyclohexyl)amino)-3-((3,5-di(pyrimidin-2-yl)phenyl)amino)pyrazine-2-carboxamide]: the IC50 lay in the range of 1 to 10 nM.

Turning to `NC(=O)c1ncc(N[C@@H]2CCCC[C@@H]2N)nc1Nc1cc(-n2nccn2)cc(-n2nccn2)c1` [Example 424, 5-(((1R,2S)-2-aminocyclohexyl)amino)-3-((3,5-di(2H-1,2,3-triazol-2-yl)phenyl)amino)pyrazine-2-carboxamide], the concentration for half-maximal inhibition (IC50) is 1 to 10 nM.

Consider `NC(=O)c1ncc(N[C@@H]2CCCC[C@@H]2N)nc1Nc1ccc2nccn2c1` [Example 425, 5-(((1R,2S)-2-aminocyclohexyl)amino)-3-(imidazo[1,2-a]pyridin-6-ylamino)pyrazine-2-carboxamide], for which the IC50 is 1 to 10 nM.

As for `CC[C@@H](Nc1cnc(C(N)=O)c(Nc2ccc3nccn3c2)n1)C(N)=O` [Example 426, (R)-5-((1-amino-1-oxobutan-2-yl)amino)-3-(imidazo[1,2-a]pyridin-6-ylamino)pyrazine-2-carboxamide], the concentration for half-maximal inhibition (IC50) is 1 to 10 nM.

Consider `NC(=O)c1ncc(N[C@@H]2CCCC[C@@H]2N)nc1Nc1ccn2ccnc2c1` [Example 427, 5-(((1R,2S)-2-aminocyclohexyl)amino)-3-(imidazo[1,2-a]pyridin-7-ylamino)pyrazine-2-carboxamide], for which the IC50 is 1 to 10 nM.

In the case of `NC(=O)c1ncc(N[C@@H]2CCCC[C@@H]2N)nc1Nc1csc2ncccc12` [Example 428, 5-(((1R,2S)-2-aminocyclohexyl)amino)-3-(thieno[2,3-b]pyridin-3-ylamino)pyrazine-2-carboxamide], the half-maximal inhibitory concentration (IC50) was below 1 nM.

For the molecule `NC(=O)c1ncc(N[C@@H]2CCCC[C@@H]2N)nc1Nc1cc(-n2ccnn2)cc(-n2nccn2)c1` [Example 429, 3-((3-(1H-1,2,3-triazol-1-yl)-5-(2H-1,2,3-triazol-2-yl)phenyl)amino)-5-(((1R,2S)-2-aminocyclohexyl)amino)pyrazine-2-carboxamide], the IC50 lay in the range of 1 to 10 nM.

As for `NC(=O)c1ncc(N[C@@H]2CCCC[C@@H]2N)nc1Nc1cnsc1` [Example 430, 5-(((1R,2S)-2-aminocyclohexyl)amino)-3-(isothiazol-4-ylamino)pyrazine-2-carboxamide], the half-maximal inhibitory concentration (IC50) lay in the range of 10 to 100 nM.

Consider `NC(=O)c1ncc(N[C@@H]2CCCC[C@@H]2N)nc1Nc1cc(N2CCOCC2)cc(-n2cccn2)c1` [Example 431, 5-(((1R,2S)-2-aminocyclohexyl)amino)-3-((3-morpholino-5-(1H-pyrazol-1-yl)phenyl)amino)pyrazine-2-carboxamide], for which the concentration for half-maximal inhibition (IC50) was in the range of 1 to 10 nM.

As to `NC(=O)c1ncc(N[C@@H]2CCCC[C@@H]2N)nc1Nc1cc(-n2ccnn2)cc(-n2ccnn2)c1` [Example 432, 5-(((1R,2S)-2-aminocyclohexyl)amino)-3-((3,5-di(1H-1,2,3-triazol-1-yl)phenyl)amino)pyrazine-2-carboxamide], the IC50 was in the range of 1 to 10 nM.

Take `NC(=O)c1ncc(N[C@@H]2CCCC[C@@H]2N)nc1Nc1cnc2ccncc2c1` [Example 433, 3-((1,6-naphthyridin-3-yl)amino)-5-(((1R,2S)-2-aminocyclohexyl)amino)pyrazine-2-carboxamide]: the half-maximal inhibitory concentration (IC50) lay in the range of 1 to 10 nM.

On to `NC(=O)c1ncc(N[C@@H]2CCCC[C@@H]2N)nc1Nc1cnc2scnc2c1` [Example 434, 5-(((1R,2S)-2-aminocyclohexyl)amino)-3-(thiazolo[5,4-b]pyridin-6-ylamino)pyrazine-2-carboxamide], for which the half-inhibitory concentration (IC50) was 1 to 10 nM.

As to `NC(=O)c1ncc(N[C@@H]2CCCC[C@@H]2N)nc1Nc1ccc2cccnc2c1` [Example 435, 5-(((1R,2S)-2-aminocyclohexyl)amino)-3-(quinolin-7-ylamino)pyrazine-2-carboxamide], the half-inhibitory concentration (IC50) was 1 to 10 nM.

Regarding `NC(=O)c1ncc(N[C@@H]2CCCC[C@@H]2N)nc1Nc1cccc2ncccc12` [Example 436, 5-(((1R,2S)-2-aminocyclohexyl)amino)-3-(quinolin-5-ylamino)pyrazine-2-carboxamide], the IC50 was below 1 nM.

On to `NC(=O)c1ncc(N[C@@H]2CCCC[C@@H]2N)nc1Nc1ccnc2ncccc12` [Example 437, 3-((1,8-naphthyridin-4-yl)amino)-5-(((1R,2S)-2-aminocyclohexyl)amino)pyrazine-2-carboxamide], for which the IC50 is 1 to 10 nM.

On to `CCC(=O)N1CCC(c2ccc(Nc3nc(N[C@@H]4CCCC[C@@H]4N)cnc3C(N)=O)cc2)CC1` [Example 438, 5-(((1R,2S)-2-aminocyclohexyl)amino)-3-((4-(1-propionylpiperidin-4-yl)phenyl)amino)pyrazine-2-carboxamide], for which the IC50 fell in the range of 1 to 10 nM.

In the case of `NC(=O)c1ncc(N[C@@H]2CCCC[C@@H]2N)nc1Nc1ccc(N2CCOCC2)c(F)c1` [Example 439, 5-(((1R,2S)-2-aminocyclohexyl)amino)-3-((3-fluoro-4-morpholinophenyl)amino)pyrazine-2-carboxamide], the IC50 fell in the range of 1 to 10 nM.

One may read the IC50 as the midpoint of a concentration-inhibition curve.
